Data taken from publication PMC7827406, “Structure–Activity Relationship (SAR) Study of Spautin-1 to Entail the Discovery of Novel NEK4 Inhibitors” (International Journal of Molecular Sciences, 2021).
Where two headings read alike, the source gives them in different places.

Tests used:
Assay in all cases: biochemical
Parameters in all cases: Eurofins KinaseProfiler full panel at Km ATP, residual kinase activity (%) relative to DMSO
Lck(h) = Lck(h) (Homo sapiens, UniProt P06239)
Description: (§1) Eurofins performed a “Full KP Panel [Km ATP], KinaseProfile” which contains 429 radiometric kinase activity assays. The remaining kinase activity (%) was determined after treatment with the compounds at a concentration of 10 µM (Cfr. supporting information). Since we could not confirm the interaction between Spautin-1 analogues and USP13, a kinase screening was performed using a set of four compounds (Spautin-1 and three analogues) to discover off-targets and identify kinases that are potentially responsible for the reduction in cell viability observed in our screen (Table 2). The KINOMEscan from Eurofins was performed (see Table S1). This screen consists of a competitive binding assay in which the DNA-tagged kinase is incubated with one of the compounds in the presence of immobilized active site binding ligands. Binding of the compounds to the kinase hampers the binding of the kinase to the ligands and this inhibition was quantified by qPCR. The residual kinase activity, which represents the percentage of kinase attached to the immobilized ligands, was determined for 428 kinases at a standard screening concentration of 10 µM of the compounds dissolved in DMSO [61].

GRK7(h) = target: T1, GRK7(h) (Homo sapiens, UniProt Q8WTQ7)
T1 sequence (Q8WTQ7 1-553): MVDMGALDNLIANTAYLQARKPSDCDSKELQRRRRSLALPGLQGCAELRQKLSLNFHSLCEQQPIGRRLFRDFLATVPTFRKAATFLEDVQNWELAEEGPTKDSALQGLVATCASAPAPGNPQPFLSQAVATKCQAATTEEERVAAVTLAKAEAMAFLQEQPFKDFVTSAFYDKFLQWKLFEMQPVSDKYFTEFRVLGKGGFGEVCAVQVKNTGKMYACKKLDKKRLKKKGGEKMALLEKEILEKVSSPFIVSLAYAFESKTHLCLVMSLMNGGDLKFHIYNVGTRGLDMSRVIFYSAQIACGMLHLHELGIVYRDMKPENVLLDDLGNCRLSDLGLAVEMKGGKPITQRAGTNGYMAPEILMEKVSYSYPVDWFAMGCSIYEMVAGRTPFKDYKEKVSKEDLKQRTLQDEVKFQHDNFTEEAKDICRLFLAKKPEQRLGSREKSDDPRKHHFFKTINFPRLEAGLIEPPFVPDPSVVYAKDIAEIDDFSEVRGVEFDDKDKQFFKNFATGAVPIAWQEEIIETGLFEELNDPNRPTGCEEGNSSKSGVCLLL
Description: as §1

NEK11(h) = target: T2, NEK11(h) (Homo sapiens, UniProt Q8NG66)
T2 sequence (Q8NG66 1-645): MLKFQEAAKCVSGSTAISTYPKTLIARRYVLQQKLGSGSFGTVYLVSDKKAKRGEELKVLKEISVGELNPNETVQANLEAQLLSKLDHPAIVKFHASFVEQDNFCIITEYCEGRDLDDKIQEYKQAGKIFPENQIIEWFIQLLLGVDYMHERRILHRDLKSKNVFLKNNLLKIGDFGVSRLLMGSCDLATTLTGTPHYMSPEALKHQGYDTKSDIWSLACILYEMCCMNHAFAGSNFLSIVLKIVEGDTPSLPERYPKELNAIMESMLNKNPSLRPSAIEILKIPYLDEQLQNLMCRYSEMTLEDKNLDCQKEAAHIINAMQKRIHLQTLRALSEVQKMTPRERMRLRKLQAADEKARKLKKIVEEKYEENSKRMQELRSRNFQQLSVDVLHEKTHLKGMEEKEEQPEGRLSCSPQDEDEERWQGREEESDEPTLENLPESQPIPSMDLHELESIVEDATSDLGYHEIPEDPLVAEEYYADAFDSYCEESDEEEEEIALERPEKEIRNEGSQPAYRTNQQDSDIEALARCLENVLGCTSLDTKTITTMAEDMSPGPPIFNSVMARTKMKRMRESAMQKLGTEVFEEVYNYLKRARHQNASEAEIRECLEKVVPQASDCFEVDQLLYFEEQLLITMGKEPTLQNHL
Description: as §1

ALK(h) = ALK(h) (Homo sapiens, UniProt Q9UM73)
Description: as §1

BTK(h) = BTK(h) (Homo sapiens, UniProt Q06187)
Description: as §1

MKK3(h) = target: T3, MKK3(h) (Homo sapiens, UniProt P46734)
T3 construct: gene MAP2K3
T3 sequence (P46734 1-347): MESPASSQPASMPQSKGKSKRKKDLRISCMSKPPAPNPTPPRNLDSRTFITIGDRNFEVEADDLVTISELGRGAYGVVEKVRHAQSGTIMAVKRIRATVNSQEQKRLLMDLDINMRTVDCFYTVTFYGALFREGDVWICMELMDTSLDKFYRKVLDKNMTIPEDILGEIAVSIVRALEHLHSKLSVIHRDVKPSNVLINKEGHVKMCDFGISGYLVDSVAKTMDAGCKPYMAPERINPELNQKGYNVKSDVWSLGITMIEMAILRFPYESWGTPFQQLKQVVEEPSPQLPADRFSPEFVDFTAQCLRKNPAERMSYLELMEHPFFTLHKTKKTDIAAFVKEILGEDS
Description: as §1

SGK(h) = target: T4, SGK(h) (Homo sapiens, UniProt O00141)
T4 construct: gene SGK1
T4 sequence (O00141 1-431): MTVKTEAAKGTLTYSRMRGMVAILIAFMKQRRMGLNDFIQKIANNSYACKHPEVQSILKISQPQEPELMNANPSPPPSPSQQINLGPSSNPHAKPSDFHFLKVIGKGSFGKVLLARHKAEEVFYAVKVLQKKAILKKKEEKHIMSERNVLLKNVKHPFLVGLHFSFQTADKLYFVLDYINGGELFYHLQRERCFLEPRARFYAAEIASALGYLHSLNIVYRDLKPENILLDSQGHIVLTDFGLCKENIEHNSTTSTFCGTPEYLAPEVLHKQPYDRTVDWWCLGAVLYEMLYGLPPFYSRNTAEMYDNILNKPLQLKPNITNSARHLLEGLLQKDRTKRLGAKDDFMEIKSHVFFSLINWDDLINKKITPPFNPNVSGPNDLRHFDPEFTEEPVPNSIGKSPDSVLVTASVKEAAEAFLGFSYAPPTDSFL
Description: as §1

[1] = read-out: Residual activity (%) Spautin-1 5aa
[2] = read-out: Residual activity (%) 5as
[3] = read-out: Residual activity (%) 5at
[4] = read-out: Residual activity (%) 5ay

Chain of ALK(h) (Q9UM73 whole entry): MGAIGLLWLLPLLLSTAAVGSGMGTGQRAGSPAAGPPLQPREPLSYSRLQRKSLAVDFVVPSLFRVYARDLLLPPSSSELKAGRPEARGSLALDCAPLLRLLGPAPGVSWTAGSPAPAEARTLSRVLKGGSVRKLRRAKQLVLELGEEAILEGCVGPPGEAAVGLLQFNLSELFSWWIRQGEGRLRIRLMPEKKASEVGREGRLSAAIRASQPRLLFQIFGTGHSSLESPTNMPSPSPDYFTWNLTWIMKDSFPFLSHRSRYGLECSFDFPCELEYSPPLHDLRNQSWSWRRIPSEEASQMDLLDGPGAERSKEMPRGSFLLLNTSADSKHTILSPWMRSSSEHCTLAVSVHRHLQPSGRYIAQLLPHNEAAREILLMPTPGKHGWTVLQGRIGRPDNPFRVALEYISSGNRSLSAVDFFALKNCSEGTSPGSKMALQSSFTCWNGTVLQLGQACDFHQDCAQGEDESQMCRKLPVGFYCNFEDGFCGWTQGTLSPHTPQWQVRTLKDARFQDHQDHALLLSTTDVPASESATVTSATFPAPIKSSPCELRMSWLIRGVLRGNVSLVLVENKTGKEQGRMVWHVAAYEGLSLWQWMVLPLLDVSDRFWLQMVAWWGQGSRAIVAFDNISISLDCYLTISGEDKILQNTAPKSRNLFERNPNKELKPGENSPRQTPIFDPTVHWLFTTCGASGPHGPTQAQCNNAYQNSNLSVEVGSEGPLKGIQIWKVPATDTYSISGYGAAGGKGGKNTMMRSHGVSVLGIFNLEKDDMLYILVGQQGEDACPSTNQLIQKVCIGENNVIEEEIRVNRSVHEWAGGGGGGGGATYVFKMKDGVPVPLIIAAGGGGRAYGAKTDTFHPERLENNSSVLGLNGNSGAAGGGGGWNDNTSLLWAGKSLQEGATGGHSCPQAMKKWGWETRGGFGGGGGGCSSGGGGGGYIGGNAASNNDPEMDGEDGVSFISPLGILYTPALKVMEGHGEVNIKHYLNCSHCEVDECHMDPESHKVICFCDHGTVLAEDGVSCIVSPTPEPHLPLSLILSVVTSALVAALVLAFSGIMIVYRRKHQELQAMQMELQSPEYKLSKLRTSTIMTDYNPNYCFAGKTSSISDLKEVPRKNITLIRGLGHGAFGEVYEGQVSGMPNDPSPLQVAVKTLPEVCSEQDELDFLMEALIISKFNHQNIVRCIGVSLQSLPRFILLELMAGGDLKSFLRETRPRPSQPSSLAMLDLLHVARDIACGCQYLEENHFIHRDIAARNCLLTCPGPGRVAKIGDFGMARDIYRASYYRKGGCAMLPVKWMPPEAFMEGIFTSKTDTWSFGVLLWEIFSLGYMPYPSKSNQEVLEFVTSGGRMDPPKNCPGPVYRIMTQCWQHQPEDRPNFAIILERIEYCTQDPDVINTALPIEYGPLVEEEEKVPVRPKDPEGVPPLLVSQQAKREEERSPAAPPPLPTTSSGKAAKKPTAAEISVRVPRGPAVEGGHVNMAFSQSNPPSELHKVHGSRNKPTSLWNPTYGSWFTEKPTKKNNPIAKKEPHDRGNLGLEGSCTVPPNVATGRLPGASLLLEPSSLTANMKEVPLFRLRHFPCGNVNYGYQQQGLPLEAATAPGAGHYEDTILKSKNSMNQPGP
Chain of Lck(h) (P06239 whole entry): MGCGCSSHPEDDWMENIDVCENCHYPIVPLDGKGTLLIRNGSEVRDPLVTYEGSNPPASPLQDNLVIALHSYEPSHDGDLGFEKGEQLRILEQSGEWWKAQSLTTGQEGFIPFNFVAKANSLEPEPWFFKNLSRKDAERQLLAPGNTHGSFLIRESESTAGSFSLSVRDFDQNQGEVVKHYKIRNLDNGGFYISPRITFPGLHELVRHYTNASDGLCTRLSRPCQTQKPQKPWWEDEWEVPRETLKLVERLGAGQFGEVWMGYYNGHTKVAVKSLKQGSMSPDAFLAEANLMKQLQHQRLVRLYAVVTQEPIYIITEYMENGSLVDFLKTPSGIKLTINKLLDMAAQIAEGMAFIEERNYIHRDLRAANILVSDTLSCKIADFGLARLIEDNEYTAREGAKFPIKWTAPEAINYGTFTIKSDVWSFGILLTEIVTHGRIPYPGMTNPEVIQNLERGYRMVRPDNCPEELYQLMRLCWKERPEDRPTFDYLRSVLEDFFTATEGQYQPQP
Chain of BTK(h) (Q06187 whole entry): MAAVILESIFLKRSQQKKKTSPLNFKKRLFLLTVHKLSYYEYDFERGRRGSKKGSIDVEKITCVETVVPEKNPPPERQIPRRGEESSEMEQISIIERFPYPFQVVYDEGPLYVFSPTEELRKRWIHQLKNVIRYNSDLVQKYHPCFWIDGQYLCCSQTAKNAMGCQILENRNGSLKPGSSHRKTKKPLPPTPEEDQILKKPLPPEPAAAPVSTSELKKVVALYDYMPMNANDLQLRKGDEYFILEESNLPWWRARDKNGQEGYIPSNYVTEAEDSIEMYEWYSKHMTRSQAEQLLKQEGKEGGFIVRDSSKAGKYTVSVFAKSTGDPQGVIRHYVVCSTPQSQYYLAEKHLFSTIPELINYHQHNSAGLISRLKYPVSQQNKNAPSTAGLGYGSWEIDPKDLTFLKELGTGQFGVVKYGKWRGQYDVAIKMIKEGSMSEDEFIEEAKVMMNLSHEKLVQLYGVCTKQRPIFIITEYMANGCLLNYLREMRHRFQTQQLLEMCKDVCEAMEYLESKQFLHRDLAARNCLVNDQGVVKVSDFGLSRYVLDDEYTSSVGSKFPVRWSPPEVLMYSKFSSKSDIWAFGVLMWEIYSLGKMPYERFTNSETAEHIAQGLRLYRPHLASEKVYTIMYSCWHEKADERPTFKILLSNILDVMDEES

Question: How did the remaining activity at 10 µM (Lck(h); [1]) turn out when `Fc1ccc(CNc2ncnc3ccc(F)cc23)cc1` [5aa, 6-Fluoro-N-(4-fluorobenzyl)-4-Quinazolinamine] was run?
Answer: Its remaining activity at 10 µM is 90%.

Question: What about the remaining activity at 10 µM (GRK7(h); [1]) of the same compound?
Answer: Its remaining activity at 10 µM is 87%.

Question: And the remaining activity at 10 µM (NEK11(h); [1])?
Answer: Its remaining activity at 10 µM is 41%.

Question: What about the remaining activity at 10 µM (ALK(h); [1]) of the same compound?
Answer: Its remaining activity at 10 µM is 82%.

Question: What about the remaining activity at 10 µM (BTK(h); [1]) of the same compound?
Answer: The remaining activity at 10 µM was 123%.

Question: And the remaining activity at 10 µM (MKK3(h); [1])?
Answer: The remaining activity at 10 µM was 101%.

Question: What about the remaining activity at 10 µM (SGK(h); [1]) of the same compound?
Answer: Its remaining activity at 10 µM is 82%.

Question: With `Fc1ccc(CCNc2ncnc3ccc(F)cc23)cc1` [5as, 6-Fluoro-N-[2-(4-Fluorophenyl)Ethyl]-4-Quinazolinamine] as the compound, how does the remaining activity at 10 µM (Lck(h); [2]) read?
Answer: Its remaining activity at 10 µM is 94%.

Question: And the remaining activity at 10 µM (GRK7(h); [2])?
Answer: Its remaining activity at 10 µM is 95%.

Question: And the remaining activity at 10 µM (NEK11(h); [2])?
Answer: The remaining activity at 10 µM was 71%.

Question: What about the remaining activity at 10 µM (ALK(h); [2]) of the same compound?
Answer: Its remaining activity at 10 µM is 59%.

Question: And the remaining activity at 10 µM (BTK(h); [2])?
Answer: Its remaining activity at 10 µM is 113%.

Question: And the remaining activity at 10 µM (MKK3(h); [2])?
Answer: The remaining activity at 10 µM was 82%.

Question: And the remaining activity at 10 µM (SGK(h); [2])?
Answer: Its remaining activity at 10 µM is 86%.

Question: For `Fc1ccc2ncnc(NCCc3ccc(Cl)cc3)c2c1` [5at, N-[2-(4-Chlorophenyl)Ethyl]-6-Fluoro-4-Quinazolinamine], which remaining activity at 10 µM (Lck(h); [3]) is on record?
Answer: Its remaining activity at 10 µM is 82%.

Question: And the remaining activity at 10 µM (GRK7(h); [3])?
Answer: The remaining activity at 10 µM was 93%.

Question: And the remaining activity at 10 µM (NEK11(h); [3])?
Answer: The remaining activity at 10 µM was 45%.

Question: And the remaining activity at 10 µM (ALK(h); [3])?
Answer: Its remaining activity at 10 µM is 86%.

Question: What about the remaining activity at 10 µM (BTK(h); [3]) of the same compound?
Answer: Its remaining activity at 10 µM is 96%.

Question: What about the remaining activity at 10 µM (MKK3(h); [3]) of the same compound?
Answer: The remaining activity at 10 µM was 86%.

Question: What about the remaining activity at 10 µM (SGK(h); [3]) of the same compound?
Answer: The remaining activity at 10 µM was 92%.

Question: `COc1ccc2ncnc(Nc3cccc(F)c3)c2c1` [5ay, N-(3-Fluorophenyl)-6-Methoxy-4-Quinazolinamine] was tested. Which remaining activity at 10 µM (Lck(h); [4]) did it give?
Answer: The remaining activity at 10 µM was 78%.

Question: And the remaining activity at 10 µM (GRK7(h); [4])?
Answer: The remaining activity at 10 µM was 91%.

Question: And the remaining activity at 10 µM (NEK11(h); [4])?
Answer: The remaining activity at 10 µM was 53%.

Question: What about the remaining activity at 10 µM (ALK(h); [4]) of the same compound?
Answer: The remaining activity at 10 µM was 72%.

Question: What about the remaining activity at 10 µM (BTK(h); [4]) of the same compound?
Answer: Its remaining activity at 10 µM is 126%.

Question: What about the remaining activity at 10 µM (MKK3(h); [4]) of the same compound?
Answer: Its remaining activity at 10 µM is 105%.

Question: What about the remaining activity at 10 µM (SGK(h); [4]) of the same compound?
Answer: The remaining activity at 10 µM was 82%.
